What was measured:
Type in all cases: biochemical
mushroom tyrosinase [1] = test: Mushroom tyrosinase inhibition assay; settings: L-DOPA substrate, Mean ± SEM
Protocol: The inhibition of mushroom tyrosinase (Sigma Chemical, U.S.A.) was performed in accordance with previously documented methodologies [[57–59]]. Each well of a 96-well microplate received 20 µl of mushroom tyrosinase (30 U/ml), 20 µl of the inhibitor solution, and 140 µl of phosphate buffer (20 mM, pH 6.8). After a 10 min preincubation at room temperature, 20 µl of L-DOPA (3,4-dihydroxyphenylalanine, Sigma Chemical, U.S.A.) at a concentration of 0.85 mM was added, and the test plate was incubated for an additional 20 min at 25°C. The absorbance of dopachrome was later quantified at 475 nm using a microplate reader (SpectraMax ABS, U.S.A.). […] Every experiment was performed three times. IC50 values were calculated by nonlinear regression using GraphPad Prism 5.0 (GraphPad, San Diego, CA U.S.A.).
The % Inhibition of tyrosinase was calculated as following:
Tyrosinase % Inhibition= (Blank−Sample)/B×100 = ( Equation 1 ).

carbonic anhydrase = carbonic anhydrase (Bos taurus, UniProt P00921); test: Carbonic anhydrase inhibition assay (p-nitrophenyl acetate hydrolysis); settings: bovine enzyme, p-nitrophenyl acetate substrate, Mean ± SEM
Chain of carbonic anhydrase (P00921 whole entry): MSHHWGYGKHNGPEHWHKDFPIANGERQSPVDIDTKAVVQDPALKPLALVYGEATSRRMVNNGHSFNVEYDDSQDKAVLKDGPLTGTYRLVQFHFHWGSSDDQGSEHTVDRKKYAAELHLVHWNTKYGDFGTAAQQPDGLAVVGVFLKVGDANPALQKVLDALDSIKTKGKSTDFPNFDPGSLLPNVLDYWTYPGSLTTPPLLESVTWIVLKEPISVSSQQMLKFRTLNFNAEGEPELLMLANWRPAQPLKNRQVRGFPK
Protocol: The inhibition of carbonic anhydrase was assessed as previously outlined, with certain modifications [[60–62]]. The method employed involves the hydrolysis of p-nitrophenyl acetate by carbonic anhydrase, resulting in the formation of yellow p-nitrophenol, which was subsequently analyzed through spectrophotometry. The reaction mixture included 20 µl of inhibitor, 120 µl of 50 mM Tris-Sulfate buffer (pH 7.6 with 0.1 mM ZnCl2), and 20 µl of bovine enzyme (50 U) per well. The components were mixed and preincubated at 25°C for 10 min. A 6 mM stock solution of the substrate p-nitrophenyl acetate was prepared with less than 5% acetonitrile in buffer and utilized fresh for each experiment, with 40 µl added per well to attain a concentration of […] per well. The total reaction volume was adjusted to 200 µl. […] Acetazolamide served as the reference standard. Each concentration underwent three separate evaluations. IC50 values were determined through nonlinear regression analysis utilizing GraphPad Prism 5.0 (GraphPad, San Diego, CA, U.S.A.).
Inhibition(%)=(B−S)/B×100
Here, the B and S are the absorbances for the blank and samples.

[2] = target: calf intestinal alkaline phosphatase (CIAP) (Bos taurus, UniProt P19111); test: Alkaline phosphatase inhibition assay; settings: p-NPP substrate, Mean ± SEM
Chain of calf intestinal alkaline phosphatase (CIAP) (P19111 20-533): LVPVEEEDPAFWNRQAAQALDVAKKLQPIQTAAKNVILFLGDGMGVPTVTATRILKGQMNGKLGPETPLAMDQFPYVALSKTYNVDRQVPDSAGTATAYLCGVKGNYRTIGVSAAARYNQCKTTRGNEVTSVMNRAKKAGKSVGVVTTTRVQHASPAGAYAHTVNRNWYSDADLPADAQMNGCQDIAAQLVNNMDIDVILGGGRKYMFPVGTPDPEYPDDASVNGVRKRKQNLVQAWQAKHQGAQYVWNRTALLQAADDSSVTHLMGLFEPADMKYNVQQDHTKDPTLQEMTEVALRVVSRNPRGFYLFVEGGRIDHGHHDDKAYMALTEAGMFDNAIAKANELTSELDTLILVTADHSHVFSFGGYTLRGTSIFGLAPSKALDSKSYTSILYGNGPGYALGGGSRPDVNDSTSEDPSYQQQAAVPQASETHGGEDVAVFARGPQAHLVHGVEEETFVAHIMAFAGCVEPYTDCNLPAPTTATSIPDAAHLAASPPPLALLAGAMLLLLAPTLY
Protocol: Spectrophotometric analysis, as previously described in publications, can be used to evaluate the activity of calf intestinal alkaline phosphatase (CIAP). The reaction mixture, including 10 µl of the reagent and 50 mM Tris-HCl buffer (5 mM MgCl2, 0.1 mM ZnCl2, pH 9.5), is preincubated for 10 min following the addition of 5 µl of CIAP (0.025 U/ml). The test mixture was then incubated at 37°C for another half hour after 10 µl of a substrate (0.5 mM p-NPP, para nitrophenyl phosphate disodium salt) was added to initiate the reaction. The alteration in absorbance of released p-nitrophenolate was measured using a 96-well microplate reader (Thermo Scientific Multiskan GO, U.S.A.) at 405 nm. All tests were repeated three times. […] The inhibition activity was calculated according to the following equation:
Inhibition(%)=(Blank−Sample)/Blank×100
IC50 values were designed using 6–8 serial dilutions, and the data were analyzed by nonlinear regression using GraphPad Prism 5 (GraphPad, San Diego, CA, U.S.A.).

mushroom tyrosinase [3] = test: Mushroom tyrosinase inhibition assay

Row | IC50 (mushroom tyrosinase [1]) [µM] | IC50 (carbonic anhydrase) [µM] | IC50 [2] [µM] | Type of tyrosinase inhibition (kinetic studies) (mushroom tyrosinase [3]) | Structure (SMILES)
1 | 1.85 ± 0.886 | 1.08 ± 0.42 | 7.77 | – | CCCCCCCC(=O)NC(=S)Nc1ccccc1-c1nc2ccccc2c2nc3ccccc3n12 [Compound 6e, N-((2-(Benzo [4, 5]imidazo[1,2 c]quinazolin-6-yl)phenyl)carbamothioyl)octanamide]
2 | 2.05 ± 0.97 | 7.14 ± 0.95 | 7.02 | – | CCCCCCCCC(=O)NC(=S)Nc1ccccc1-c1nc2ccccc2c2nc3ccccc3n12 [Compound 6f, N -((2-(Benzo[4,5]imidazo[1,2-c]quinazolin-6-yl)phenyl)carbamothioyl)nonanamide]
3 | 0.832 ± 0.03 | 0.708 ± 0.02 | 2.81 ± 0.42 | competitive inhibition | CCCCCCCCCC(=O)NC(=S)Nc1ccccc1-c1nc2ccccc2c2nc3ccccc3n12 [Compound 6g, N -((2-(Benzo[4,5]imidazo[1,2-c]quinazolin-6-yl)phenyl)carbamothioyl)decanamide]
4 | 1.27 ± 0.17 | 2.33 ± 0.34 | 7.2 ± 0.63 | – | CC(C)(C)C(=O)NC(=S)Nc1ccccc1-c1nc2ccccc2c2nc3ccccc3n12 [Compound 6h, N-((2-(Benzo [4, 5]imidazo[1,2 c]quinazolin-6-yl)phenyl)carbamothioyl)pivalamide]

The remaining lines, values behind:

Row | Structure (SMILES) | IC50 (mushroom tyrosinase [1]) [µM] | IC50 (carbonic anhydrase) [µM] | IC50 [2] [µM] | Type of tyrosinase inhibition (kinetic studies) (mushroom tyrosinase [3])
5 | CCCC(=O)NC(=S)Nc1ccccc1-c1nc2ccccc2c2nc3ccccc3n12 [Compound 6a, N-((2-(Benzo [4, 5]imidazo[1,2 c]quinazolin-6-yl)phenyl)carbamothioyl)butyramide] | 7.95 ± 0.63 | 10.9 ± 0.99 | 20.6 | –
6 | CCCCC(=O)NC(=S)Nc1ccccc1-c1nc2ccccc2c2nc3ccccc3n12 [Compound 6b, N -((2-(Benzo[4,5]imidazo[1,2-c]quinazolin-6-yl)phenyl)carbamothioyl)pentanamide] | 4.88 ± 0.54 | 2.76 ± 0.56 | 10.7 ± 0.96 | –
7 | CCCCCC(=O)NC(=S)Nc1ccccc1-c1nc2ccccc2c2nc3ccccc3n12 [Compound 6c, N ((2-(Benzo [4, 5]imidazo[1,2 c]quinazolin-6-yl)phenyl)carbamothioyl)hexanamide] | 2.8 ± 0.85 | 7.42 ± 0.74 | 20.3 | –
8 | CCCCCCC(=O)NC(=S)Nc1ccccc1-c1nc2ccccc2c2nc3ccccc3n12 [Compound 6d, N-((2-(Benzo [4, 5]imidazo[1,2 c]quinazolin-6-yl)phenyl)carbamothioyl)heptanamide] | 0.921 ± 0.07 | 3.51 ± 0.63 | 16.6 ± 0.98 | –

— article PMC12863032, “Design, synthesis, and anticancer activity of novel isocryptolepine ‘aza’ type acyl thiourea derivatives via combined experimental and computational approach” (Bioscience Reports, 2026)
